Reference: US20250333733A1, “NOVEL TARGETS AGAINST OVARIAN CANCER” (UNIVERSITY OF PUERTO RICO, priority 2022, published 2025)

Tests used:
SKOV3ip1CIS cells [1] = assay: Colony formation assay after siRNA transfection; format: cell-based, human; settings: SKOV3ip1CIS (FIG. 8B)
Experimental: SiRNA ON-TARGET plus SMARTpool (a mixture of 4 siRNA as a single tube) and a negative control siRNA (NC-siRNA) (Sigma-Aldrich) were used for transfection studies. CASC10, was targeted by using two siRNAs targeting different regions of the CASC10 RNA (e.g., CASC10-siRNA (1) and CASC10-siRNA (2)). OVCAR3CIS or SKOV3ip1CIS cells were seeded into 12-well plates at 3.0×10^4 cells/mL. The next day, siRNAs were mixed with HiPerfect transfection reagent (Qiagen, Valencia, CA) at a 1:2 ratio (SIRNA: HiPerfect) in serum and antibiotic-free Opti-MEM medium (Gibco) and added to the cells. After twenty-four hours the media was replaced by regular culture media, and cells were cultured and used for further experiments. To assess siRNA transfection efficiency, cells were collected 24 hours after siRNA transfection.
OVCAR3CIS cells (3.0×10^4 cells/mL) or SKOV3ip1CIS (3.0×10^4 cells/mL) were seeded into 12-well plates. Twenty-four hours later, cells were transfected with 100 nM (final concentration) of each siRNA. […] Colonies of at least 50 cells were counted using a light microscope (CKX41: Olympus, Center Valley, PA, USA) with a total magnification of 40x. […] Optical density (OD) was measured, and percentages of cell viability were calculated after blank OD subtraction. Untreated cells were assessed as 100% cell viability.

OVCAR3CIS cells [2] = assay: Cell viability, Alamar blue, siRNA alone or with cisplatin; format: cell-based; settings: OVCAR3CIS, vs NC-siRNA
Experimental: OVCAR3CIS cells (3.0×10^4 cells/mL) or SKOV3ip1CIS (3.0×10^4 cells/mL) were seeded into 12-well plates. […] The next day, 400 cells (OVCAR3CIS) or 1,000 cells (SKOV3ip1CIS) were seeded into 6-well plates and incubated for seven days, fixed and stained with 0.5% crystal violet in methanol. Colonies of at least 50 cells were counted using a light microscope (CKX41: Olympus, Center Valley, PA, USA) with a total magnification of 40x. For cell viability assays, OVCAR3 and OVCAR3CIS (3.0×10^4 cells/mL) or SKOV3ip1and SKOV3ip1CIS (3.5×10^4 cells/mL) were seeded into 96-well plates, and 24 hours later, siRNA transfection was performed as described above. The next day, the transfection mix was replaced with cisplatin (CIS) (2.5 uM final concentration dissolved in regular cell culture media) and after forty-eight hours, the medium was removed, and Alamar blue dye (Invitrogen, Thermo Fisher Scientific, Eugene, OR, USA) was added following the manufacturer's instructions. Optical density (OD) was measured, and percentages of cell viability were calculated after blank OD subtraction. Untreated cells were assessed as 100% cell viability.

OVCAR3 cells = assay: Cell viability, Alamar blue, siRNA; format: cell-based; settings: OVCAR3, any siRNA concentration tested, vs NC-siRNA
Experimental: OVCAR3CIS cells (3.0×10^4 cells/mL) or SKOV3ip1CIS (3.0×10^4 cells/mL) were seeded into 12-well plates. Twenty-four hours later, cells were transfected with 100 nM (final concentration) of each siRNA. The next day, 400 cells (OVCAR3CIS) or 1,000 cells (SKOV3ip1CIS) were seeded into 6-well plates and incubated for seven days, fixed and stained with 0.5% crystal violet in methanol. Colonies of at least 50 cells were counted using a light microscope (CKX41: Olympus, Center Valley, PA, USA) with a total magnification of 40x. For cell viability assays, OVCAR3 and OVCAR3CIS (3.0×10^4 cells/mL) or SKOV3ip1and SKOV3ip1CIS (3.5×10^4 cells/mL) were seeded into 96-well plates, and 24 hours later, siRNA transfection was performed as described above. The next day, the transfection mix was replaced with cisplatin (CIS) (2.5 uM final concentration dissolved in regular cell culture media) and after forty-eight hours, the medium was removed, and Alamar blue dye (Invitrogen, Thermo Fisher Scientific, Eugene, OR, USA) was added following the manufacturer's instructions. Optical density (OD) was measured, and percentages of cell viability were calculated after blank OD subtraction. Untreated cells were assessed as 100% cell viability.

Caspase-3 = Caspase-3 fluorometric activity in SKOV3ip1CIS cells; format: cell-based, human; settings: 72 hours after transfection, vs NC-siRNA
Experimental: Caspase-3 activity was quantified using the Caspase-3/CPP32 Fluorometric Assay Kit (BioVision CA, USA) as per the manufacturer's instructions. OVCAR3CIS (3.0×10^4 cells/mL) or SKOV3ip1CIS (3.5×10^4 cells/mL) were seeded into 10 cm Petri dishes and transfected with NC-siRNA or CASC10-siRNA (2). Twenty-four hours later, the media was replaced by regular media, and seventy-two hours after transfection, cells were collected, pellets lysed, and total protein concentration determined. Equal amounts of protein were mixed with 2×Reaction Buffer and 1 mM DEVD-AFC substrate in a 96-well plate and incubated at 37° C. for 2.5 hours. Fluorescence intensity at 400 nm excitation and 505 nm emission was measured.

OVCAR3CIS cells [3] = assay: Western blot of apoptotic-related and cell-cycle related proteins; format: cell-based; settings: vs NC-siRNA
Experimental: (§1) Cell pellets were lysed with complete lysis buffer and total protein concentration […]. Protein samples were separated by SDS-PAGE, blotted onto nitrocellulose membranes, blocked in either 5% non-fat dry milk (Bio-Rad) or 5% BSA (HyClone), and probed with the appropriate dilution of corresponding primary antibody. Membranes were rinsed and incubated with corresponding HRP-conjugated secondary antibody, followed by enhanced chemiluminescence and autoradiography.

SKOV3ip1CIS cells [4] = assay: as above; format: cell-based, human
Experimental: as §1

OVCAR3CIS cells [5] = assay: RNA-seq after siRNA-mediated CASC10 knockdown; format: cell-based
Experimental: The RNA sequencing library was prepared by first extracting, total RNA using the GenElute Mammalian Total RNA Miniprep Kit (Sigma). RNA sample integrity was evaluated and RNAs with a RIN >7 were used.
RNA fragmentation was carried out for 10 minutes, followed by first-and second-strand cDNA synthesis and adenylation using the TruSeq Stranded Total RNA with Illumina Ribo-Zero Plus rRNA Depletion (Illumina, San Diego, CA). The PCR products were run on a flow cell running a 50 base paired-end (2X50) recipe. The differential expression analysis was carried out using the DESeq2 (version 1.28.1) package (R version 4.0.1). As the count data was obtained in two batches, a batch correction term was introduced in the DESeq2 model using ComBat Seq to have better statistical power and control of false positives. The Ensembl IDs were converted to gene symbols and names using the org.Hs.eg.db package (version 3.11.4). […]

Substance: CASC10-siRNA (2): siRNA targeting CASC10 RNA, SEQ ID NO 3 and 4: 5′ GACUCUUGGAUCCAAGUUU(dT)(dT) 3′ / 5′ AAACUUGGAUCCAAGAGUC(dT)(dT) 3′ (chain 1 GACUCUUGGAUCCAAGUUUNN; chain 2 AAACUUGGAUCCAAGAGUCNN; 3' dTdT overhangs, chemistry not fully specified)
- reduction in the number of colonies (SKOV3ip1CIS cells [1]): 86%
- reduction of cell viability (OVCAR3CIS cells [2]; 50 nM siRNA): 15%
- reduction of cell viability (OVCAR3CIS cells [2]; 100 nM siRNA): 30%
- cell viability (reduced to) (OVCAR3CIS cells [2]; siRNA combined with CIS 2.5 μM): 56%
- cell viability (OVCAR3 cells): did not significantly reduce cell viability
- increase in caspase-3 activity (Caspase-3): 4 fold
- Bcl-2 protein (OVCAR3CIS cells [3]): strong reduction
- CDK4 protein (OVCAR3CIS cells [3]): reduction
- Cyclin E1 protein (OVCAR3CIS cells [3]): reduction
- cleaved Caspase-3 protein (OVCAR3CIS cells [3]): significant increase
- cleaved Caspase-9 protein (OVCAR3CIS cells [3]): significant increase
- cleaved PARP-1 protein (OVCAR3CIS cells [3]): significant increase
- p27 protein levels (OVCAR3CIS cells [3]): reduction
- Bcl-2 decrease (SKOV3ip1CIS cells [4]): 66%
- cleaved Caspase-3 increase (SKOV3ip1CIS cells [4]): 6 fold
- cleaved Caspase-9 increase (SKOV3ip1CIS cells [4]): 2 fold
- cleaved PARP-1 increase (SKOV3ip1CIS cells [4]): 7 fold
- CDK4 protein (SKOV3ip1CIS cells [4]; vs NC-siRNA): reduction
- Cyclin E1 protein (SKOV3ip1CIS cells [4]; vs NC-siRNA): reduction
- p27 protein levels (SKOV3ip1CIS cells [4]; vs NC-siRNA): reduction
- differentially expressed genes (OVCAR3CIS cells [5]; log2 fold change >1.2 or <−1.2, p-value ≤0.01, vs NC-siRNA): 32
- differentially abundant transcripts exclusive of CASC10-siRNA (2) compared with NC-siRNA (OVCAR3CIS cells [5]; padj <0.01): 1,400
